Assays:
α4β1 integrin = α4β1 integrin (Homo sapiens, UniProt P05556+P13612); conditions: cited from earlier work
α5β1 integrin = α5β1 integrin (Homo sapiens, UniProt P05556+P08648); test: Cell adhesion assay, SW480 plated on fibronectin; assay type: cell-based; conditions: for improvement of potency against α5β1 integrin: cell adhesion, versus alkyl-linker compounds
αvβ3 integrin = αvβ3 integrin (Homo sapiens, UniProt P05106+P06756); test: Cell adhesion assay, SW480 transfected with human β3 adhering to fibrinogen; assay type: cell-based
Sequence of αvβ3 integrin (P06756 31-889 limits assumed): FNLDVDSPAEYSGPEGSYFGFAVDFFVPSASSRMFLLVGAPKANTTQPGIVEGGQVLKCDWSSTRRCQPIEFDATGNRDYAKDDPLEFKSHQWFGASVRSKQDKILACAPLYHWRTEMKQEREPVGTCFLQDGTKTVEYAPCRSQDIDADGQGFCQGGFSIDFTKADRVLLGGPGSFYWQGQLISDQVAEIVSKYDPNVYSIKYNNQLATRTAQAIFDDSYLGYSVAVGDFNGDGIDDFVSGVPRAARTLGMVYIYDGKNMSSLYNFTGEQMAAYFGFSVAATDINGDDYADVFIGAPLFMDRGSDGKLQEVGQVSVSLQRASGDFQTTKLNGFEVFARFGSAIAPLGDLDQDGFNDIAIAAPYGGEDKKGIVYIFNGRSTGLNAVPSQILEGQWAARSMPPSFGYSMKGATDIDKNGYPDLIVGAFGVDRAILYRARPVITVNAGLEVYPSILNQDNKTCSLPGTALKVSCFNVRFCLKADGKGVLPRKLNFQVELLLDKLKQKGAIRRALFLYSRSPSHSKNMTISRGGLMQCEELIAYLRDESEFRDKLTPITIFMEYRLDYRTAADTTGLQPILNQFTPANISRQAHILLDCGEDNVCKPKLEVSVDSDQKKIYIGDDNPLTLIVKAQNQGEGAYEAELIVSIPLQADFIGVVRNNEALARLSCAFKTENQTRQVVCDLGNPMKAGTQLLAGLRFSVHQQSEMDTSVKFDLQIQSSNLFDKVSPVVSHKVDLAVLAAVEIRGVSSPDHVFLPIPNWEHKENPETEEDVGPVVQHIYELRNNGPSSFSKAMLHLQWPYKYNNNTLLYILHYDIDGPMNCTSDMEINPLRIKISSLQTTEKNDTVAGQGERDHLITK
Sequence of αvβ3 integrin (P06756 891-1048 partner limits assumed): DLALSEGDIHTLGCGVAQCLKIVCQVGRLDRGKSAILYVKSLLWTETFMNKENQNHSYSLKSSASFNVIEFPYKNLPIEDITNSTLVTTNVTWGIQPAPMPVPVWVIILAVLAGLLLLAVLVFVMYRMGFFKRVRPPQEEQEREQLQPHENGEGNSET
Sequence of αvβ3 integrin (P05106 27-788): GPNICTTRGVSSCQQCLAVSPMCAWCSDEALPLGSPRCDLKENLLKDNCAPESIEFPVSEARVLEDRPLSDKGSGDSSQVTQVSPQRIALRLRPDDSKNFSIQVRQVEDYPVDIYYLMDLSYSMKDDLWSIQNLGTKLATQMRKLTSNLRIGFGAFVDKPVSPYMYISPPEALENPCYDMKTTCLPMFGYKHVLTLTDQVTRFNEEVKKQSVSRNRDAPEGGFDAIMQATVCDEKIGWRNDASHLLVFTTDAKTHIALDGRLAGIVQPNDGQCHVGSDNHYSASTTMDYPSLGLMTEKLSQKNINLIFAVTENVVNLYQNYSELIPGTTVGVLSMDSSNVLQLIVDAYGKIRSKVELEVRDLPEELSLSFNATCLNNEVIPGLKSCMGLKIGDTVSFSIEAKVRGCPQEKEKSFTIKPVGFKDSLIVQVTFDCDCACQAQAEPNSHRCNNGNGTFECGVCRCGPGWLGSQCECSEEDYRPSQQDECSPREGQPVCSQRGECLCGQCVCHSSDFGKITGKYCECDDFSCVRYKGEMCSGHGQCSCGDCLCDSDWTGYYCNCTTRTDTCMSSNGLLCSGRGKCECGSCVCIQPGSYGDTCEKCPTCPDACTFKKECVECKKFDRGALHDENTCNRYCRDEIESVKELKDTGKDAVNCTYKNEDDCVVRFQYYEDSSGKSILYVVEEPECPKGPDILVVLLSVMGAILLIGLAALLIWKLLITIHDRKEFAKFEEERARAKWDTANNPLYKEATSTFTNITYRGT

αvβ1 integrin = αvβ1 integrin (UniProt G3HZ55+P06756); test: Cell adhesion assay, CHOαv adhering to fibronectin; assay type: cell-based
Sequence of αvβ1 integrin (P06756 31-889 limits assumed): as the sequence (P06756 31-889 limits assumed) above
Sequence of αvβ1 integrin (P06756 891-1048 limits assumed): as the sequence (P06756 891-1048 partner limits assumed) above
Sequence of αvβ1 integrin (G3HZ55 21-798): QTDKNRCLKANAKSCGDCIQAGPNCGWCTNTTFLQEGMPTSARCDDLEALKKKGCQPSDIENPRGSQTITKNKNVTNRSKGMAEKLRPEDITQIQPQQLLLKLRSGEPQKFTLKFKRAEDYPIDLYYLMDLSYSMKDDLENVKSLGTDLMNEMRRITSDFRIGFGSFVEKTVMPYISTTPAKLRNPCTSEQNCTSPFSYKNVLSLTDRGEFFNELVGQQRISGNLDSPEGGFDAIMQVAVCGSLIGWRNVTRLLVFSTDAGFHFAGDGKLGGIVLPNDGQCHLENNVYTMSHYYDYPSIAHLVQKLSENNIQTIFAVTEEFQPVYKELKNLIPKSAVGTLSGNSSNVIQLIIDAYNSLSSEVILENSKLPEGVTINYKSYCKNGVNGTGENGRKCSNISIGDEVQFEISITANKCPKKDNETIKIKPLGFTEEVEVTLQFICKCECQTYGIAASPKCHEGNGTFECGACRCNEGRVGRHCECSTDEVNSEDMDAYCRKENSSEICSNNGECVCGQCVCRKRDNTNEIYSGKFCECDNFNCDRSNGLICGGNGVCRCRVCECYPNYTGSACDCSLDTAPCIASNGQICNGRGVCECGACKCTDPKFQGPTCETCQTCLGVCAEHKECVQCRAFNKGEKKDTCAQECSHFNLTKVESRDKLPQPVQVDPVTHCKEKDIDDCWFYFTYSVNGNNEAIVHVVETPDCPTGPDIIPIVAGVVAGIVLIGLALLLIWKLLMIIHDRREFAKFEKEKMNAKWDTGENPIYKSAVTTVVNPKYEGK

Solubility = assay type: physicochemical
Caco-2 cell = Caco-2 cell permeability assay; assay type: in vitro ADME

Sequence of α5β1 integrin (P08648 42-894 limits assumed): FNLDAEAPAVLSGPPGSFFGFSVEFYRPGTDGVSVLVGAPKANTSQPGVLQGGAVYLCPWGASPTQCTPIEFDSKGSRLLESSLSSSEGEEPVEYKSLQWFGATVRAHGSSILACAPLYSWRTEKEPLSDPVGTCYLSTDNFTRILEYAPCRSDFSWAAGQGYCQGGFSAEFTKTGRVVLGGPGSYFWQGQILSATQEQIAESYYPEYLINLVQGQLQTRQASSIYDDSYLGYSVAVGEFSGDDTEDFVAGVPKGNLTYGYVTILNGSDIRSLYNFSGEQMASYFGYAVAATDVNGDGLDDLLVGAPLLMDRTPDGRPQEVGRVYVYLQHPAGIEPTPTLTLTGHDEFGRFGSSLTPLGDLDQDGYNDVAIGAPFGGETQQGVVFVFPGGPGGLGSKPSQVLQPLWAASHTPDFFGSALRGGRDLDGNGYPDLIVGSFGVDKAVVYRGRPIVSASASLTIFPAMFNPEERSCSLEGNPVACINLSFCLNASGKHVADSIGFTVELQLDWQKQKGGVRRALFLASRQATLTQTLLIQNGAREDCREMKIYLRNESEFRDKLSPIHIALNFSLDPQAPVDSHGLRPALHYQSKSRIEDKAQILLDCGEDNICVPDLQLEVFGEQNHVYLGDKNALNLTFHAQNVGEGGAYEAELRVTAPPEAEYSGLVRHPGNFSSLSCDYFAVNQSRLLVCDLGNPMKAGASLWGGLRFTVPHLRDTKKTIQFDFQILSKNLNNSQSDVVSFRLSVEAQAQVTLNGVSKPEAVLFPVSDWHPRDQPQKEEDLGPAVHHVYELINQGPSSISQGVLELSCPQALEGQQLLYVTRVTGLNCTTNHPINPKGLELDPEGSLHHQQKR
Sequence of α5β1 integrin (P08648 895-1049 partner limits assumed): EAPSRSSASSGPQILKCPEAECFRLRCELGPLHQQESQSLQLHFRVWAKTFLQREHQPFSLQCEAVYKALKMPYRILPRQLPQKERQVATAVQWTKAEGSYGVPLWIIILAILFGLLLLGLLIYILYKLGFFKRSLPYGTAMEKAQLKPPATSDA
Sequence of α5β1 integrin (P05556 21-798): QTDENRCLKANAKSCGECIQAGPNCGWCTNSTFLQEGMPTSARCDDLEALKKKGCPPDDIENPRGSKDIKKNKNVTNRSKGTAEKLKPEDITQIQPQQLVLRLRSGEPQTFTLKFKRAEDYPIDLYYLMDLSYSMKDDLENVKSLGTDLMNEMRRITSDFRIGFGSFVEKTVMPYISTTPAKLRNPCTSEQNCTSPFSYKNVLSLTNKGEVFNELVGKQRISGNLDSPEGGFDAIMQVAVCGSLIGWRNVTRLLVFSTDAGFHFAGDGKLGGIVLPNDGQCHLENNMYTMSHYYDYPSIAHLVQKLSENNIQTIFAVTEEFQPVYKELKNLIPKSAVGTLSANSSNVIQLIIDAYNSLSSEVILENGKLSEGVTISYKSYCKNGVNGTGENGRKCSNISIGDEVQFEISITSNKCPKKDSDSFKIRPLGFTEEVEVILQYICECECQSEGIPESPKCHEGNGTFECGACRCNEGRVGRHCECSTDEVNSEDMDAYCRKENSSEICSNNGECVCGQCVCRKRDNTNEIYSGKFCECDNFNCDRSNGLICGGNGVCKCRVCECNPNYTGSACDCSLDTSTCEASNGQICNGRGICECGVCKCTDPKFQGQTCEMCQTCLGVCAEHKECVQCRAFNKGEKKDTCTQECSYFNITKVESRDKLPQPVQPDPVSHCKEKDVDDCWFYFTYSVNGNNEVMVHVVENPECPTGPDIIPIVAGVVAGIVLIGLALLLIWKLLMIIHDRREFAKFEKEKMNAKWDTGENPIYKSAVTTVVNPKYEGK

potency against α5β1 integrin in cell adhesion assay (in words) (α5β1 integrin)	selectivity against αvβ3 integrin in cell adhesion assay (in words) (αvβ3 integrin)	potency against αvβ1 integrin in cell adhesion assay (in words) (αvβ1 integrin)	improvement of potency against α5β1 integrin (α5β1 integrin)	solubility (in words) (Solubility)	permeability in Caco-2 cell assay (in words) (Caco-2 cell)	Compound	selectivity against α4β1 integrin (in words) (α4β1 integrin)
	not still satisfactory		more than 10 fold			N=C(N)Nc1cccc(C(=O)NCC(=O)NC[C@H](NC(=O)[C@@H]2CCCN2S(=O)(=O)c2ccccc2)C(=O)O)c1 [Compound 11]	
	not still satisfactory		more than 10 fold			N=C(N)Nc1cccc(C(=O)NNC(=O)NC[C@H](NC(=O)[C@@H]2CCCN2S(=O)(=O)c2ccccc2)C(=O)O)c1 [Compound 12]	
excellent nanomolar potency	great selectivity	sub-nanomolar potency		limited solubility	poor permeability	N=C(N)Nc1cc(NC(=O)CCCNC(=O)C23CC4CC(CC(C4)C2)C3)cc(C(=O)NCC(=O)NC[C@H](NC(=O)[C@@H]2CCCN2S(=O)(=O)c2ccccc2)C(=O)O)c1 [Compound 15]	

Continued, compound first:

Compound	potency against α5β1 integrin in cell adhesion assay (in words) (α5β1 integrin)	selectivity against αvβ3 integrin in cell adhesion assay (in words) (αvβ3 integrin)	potency against αvβ1 integrin in cell adhesion assay (in words) (αvβ1 integrin)	improvement of potency against α5β1 integrin (α5β1 integrin)	solubility (in words) (Solubility)	permeability in Caco-2 cell assay (in words) (Caco-2 cell)	selectivity against α4β1 integrin (in words) (α4β1 integrin)
N=C(N)NCCCCC(=O)Nc1ccc(C[C@H](NC(=O)[C@@H]2CCCN2S(=O)(=O)c2ccccc2)C(=O)O)cc1 [Compound 4]							marginal selectivity
N=C(N)NCCCCCNC(=O)NC[C@H](NC(=O)[C@@H]1CCCN1S(=O)(=O)c1ccccc1)C(=O)O [Compound 5]	sub-micromolar IC50	excellent selectivity	sub-nanomolar potency				
